The nature of assay [1]: NIH-3T3 fibroblast cytotoxicity, dose response, cytotoxicity control, cell-based, fluorescence, Alamar Blue, secondary assay (AID 2327).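 Also: NIH-3T3 mouse fibroblasts cultured with fluconazole at 8 µg/mL.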 The assay is classed as functional. In general terms: Resazurin is reduced to fluorescent resorufin, in cell work by metabolically active cells.
Assay [2] is described as follows: C. albicans growth with fluconazole, confirmation, fluorescence, retest (AID 2467). The assay is classed as functional, cell-based.
For assay [3], the target named is T1, Polyadenylate-binding protein 1 (Homo sapiens, UniProt P11940). As to the kind of experiment: PABP1 MLLE–PAM2 binding inhibitor potency, dose response, biochemical, fluorescence polarization, FITC-PAM2 peptide (AID 602259). The assay is classed as functional. As to conditions: read-out: IC50_Mean. In general terms: Fluorescence polarisation rises when a labelled molecule tumbles more slowly, as on binding a larger partner.
T1 sequence (P11940 whole entry): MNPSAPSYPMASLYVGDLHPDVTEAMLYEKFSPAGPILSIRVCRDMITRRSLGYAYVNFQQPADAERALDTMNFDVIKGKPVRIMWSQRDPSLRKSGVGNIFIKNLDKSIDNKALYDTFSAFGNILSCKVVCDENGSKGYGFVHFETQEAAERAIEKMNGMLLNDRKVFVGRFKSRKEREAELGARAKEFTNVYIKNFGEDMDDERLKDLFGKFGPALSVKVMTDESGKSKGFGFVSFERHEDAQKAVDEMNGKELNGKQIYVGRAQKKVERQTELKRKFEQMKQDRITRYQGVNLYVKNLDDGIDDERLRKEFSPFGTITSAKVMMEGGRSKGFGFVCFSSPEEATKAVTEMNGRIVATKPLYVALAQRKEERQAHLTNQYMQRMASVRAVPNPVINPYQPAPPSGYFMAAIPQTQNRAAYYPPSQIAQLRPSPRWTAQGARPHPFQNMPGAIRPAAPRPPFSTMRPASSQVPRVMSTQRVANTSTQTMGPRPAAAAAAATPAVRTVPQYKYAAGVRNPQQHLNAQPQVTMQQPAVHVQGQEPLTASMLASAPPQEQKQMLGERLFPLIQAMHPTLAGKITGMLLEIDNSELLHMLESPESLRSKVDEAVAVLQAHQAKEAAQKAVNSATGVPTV

The target of another assay is Genome polyprotein (dengue virus type 2, UniProt P29990). As to the kind of experiment: Dengue-2 NS5 methyltransferase inhibitors, primary screen, biochemical, confirmation dose response (AID 588689). Format: functional.
Sequence of Genome polyprotein (P29990 2492-3391 limits assumed): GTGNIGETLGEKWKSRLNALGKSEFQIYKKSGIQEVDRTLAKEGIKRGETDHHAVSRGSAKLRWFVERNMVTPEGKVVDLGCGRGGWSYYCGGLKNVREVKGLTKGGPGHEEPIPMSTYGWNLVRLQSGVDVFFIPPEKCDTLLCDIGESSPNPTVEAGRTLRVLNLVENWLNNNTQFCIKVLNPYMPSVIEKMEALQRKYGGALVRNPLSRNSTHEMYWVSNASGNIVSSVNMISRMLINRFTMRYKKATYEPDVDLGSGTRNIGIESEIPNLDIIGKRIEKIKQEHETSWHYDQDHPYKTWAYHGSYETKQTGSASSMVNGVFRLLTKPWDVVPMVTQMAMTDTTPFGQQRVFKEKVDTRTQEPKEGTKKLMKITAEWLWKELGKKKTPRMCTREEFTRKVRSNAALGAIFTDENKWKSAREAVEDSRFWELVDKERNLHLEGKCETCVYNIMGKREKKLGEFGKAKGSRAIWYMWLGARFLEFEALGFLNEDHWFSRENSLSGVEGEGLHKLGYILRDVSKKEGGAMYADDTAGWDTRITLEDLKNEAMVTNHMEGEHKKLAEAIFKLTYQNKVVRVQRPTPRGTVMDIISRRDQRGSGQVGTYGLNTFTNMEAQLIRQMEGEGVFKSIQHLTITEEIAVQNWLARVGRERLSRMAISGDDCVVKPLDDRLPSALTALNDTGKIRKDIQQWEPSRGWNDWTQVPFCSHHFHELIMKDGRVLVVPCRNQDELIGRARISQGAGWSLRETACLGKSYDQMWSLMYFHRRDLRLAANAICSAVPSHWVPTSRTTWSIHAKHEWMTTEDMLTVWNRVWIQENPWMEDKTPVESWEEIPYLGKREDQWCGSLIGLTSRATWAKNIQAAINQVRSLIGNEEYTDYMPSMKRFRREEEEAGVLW
Assay [4] concerns the target Ras and Rab interactor 1/Tyrosine-protein kinase ABL1 (Homo sapiens, UniProt P00519+Q13671). Format: functional.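 Also: biochemical TR-FRET dose-response test measuring inhibition of binding between Rin1 and Abl proteins.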
Assay [5] has as its target T1, Polyadenylate-binding protein 1. The assay can be described thus: PABP1 MLLE–PAM2 interaction inhibitors, dose response, miRNA deadenylation inhibitor project, biochemical, fluorescence polarization, Cy5-PAM2 peptide, secondary (AID 602260). As to conditions: read-out: IC50_Mean. Format: functional.
Assay [6] deals with Heat shock protein HSP 90-alpha (Homo sapiens, UniProt P07900). The assay is classed as functional, organism-based.
A further assay deals with Vero. As to the kind of experiment: Vero cell cytotoxicity, cytotoxicity control for flavivirus capping enzyme inhibitors (AID 588742). The assay is classed as functional. The conditions noted are these: Chlorocebus sabaeus.
Assay [7] has as its target Serine/threonine-protein phosphatase PP1-alpha catalytic subunit (Homo sapiens, UniProt P62136). As to the kind of experiment: PP1 phosphatase inhibitors, dose response, biochemical, fluorescence (AID 2403).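 Also: phosphatase turnover of OMFP into fluorescent 3-O-methylfluorescein.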
In assay [8] the target is Serine/threonine-protein phosphatase (Homo sapiens, UniProt Q9BPW0). The assay can be described thus: Counterscreen for inhibitors of PP1: fluorescence-based biochemical high throughput dose response assay to identify inhibitors of Protein Phosphatase 5 (PP5). [Related pubchem assays: 2034 (Summary (PP5 inhibitors)), 1987 (PP5 inhibitors in singlate), 2235 (PP1 inhibitors in singlate)].
Sequence of Serine/threonine-protein phosphatase (Q9BPW0 whole entry): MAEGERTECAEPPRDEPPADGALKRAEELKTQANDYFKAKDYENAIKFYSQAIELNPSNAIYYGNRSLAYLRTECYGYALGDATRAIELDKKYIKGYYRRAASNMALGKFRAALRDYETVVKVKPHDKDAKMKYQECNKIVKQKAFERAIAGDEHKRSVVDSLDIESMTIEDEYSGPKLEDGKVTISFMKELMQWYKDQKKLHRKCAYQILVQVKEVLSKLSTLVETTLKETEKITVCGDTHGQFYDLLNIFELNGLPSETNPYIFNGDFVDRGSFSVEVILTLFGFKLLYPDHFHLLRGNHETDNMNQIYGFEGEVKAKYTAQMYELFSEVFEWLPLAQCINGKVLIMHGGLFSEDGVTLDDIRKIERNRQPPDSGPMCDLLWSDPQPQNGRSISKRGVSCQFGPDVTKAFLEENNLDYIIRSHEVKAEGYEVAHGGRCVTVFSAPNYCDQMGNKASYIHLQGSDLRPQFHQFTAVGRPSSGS

Assay [9] in a line: A cytotoxicity screen of small molecule inhibitors of the PhoP region in Salmonella typhi identified in the primary screen. [Related pubchem assays: 1850, 1864, 1985 ]. The assay is classed as functional.
The next assay has as its system Staphylococcus aureus. As to the kind of experiment: Inhibitors of Bacterial Quorum Sensing Structure Activity Relationship (SAR) Analysis: Dose Response Assay. [Related pubchem assays: 700, 527 ]. Format: functional, organism-based.
The target in assay [10] is Transitional endoplasmic reticulum ATPase (Homo sapiens, UniProt P55072). The assay can be described thus: p97 ATPase inhibitors, dose response, biochemical (AID 1534).
Sequence of Transitional endoplasmic reticulum ATPase (Homo sapiens, UniProt P55072) (P55072 whole entry): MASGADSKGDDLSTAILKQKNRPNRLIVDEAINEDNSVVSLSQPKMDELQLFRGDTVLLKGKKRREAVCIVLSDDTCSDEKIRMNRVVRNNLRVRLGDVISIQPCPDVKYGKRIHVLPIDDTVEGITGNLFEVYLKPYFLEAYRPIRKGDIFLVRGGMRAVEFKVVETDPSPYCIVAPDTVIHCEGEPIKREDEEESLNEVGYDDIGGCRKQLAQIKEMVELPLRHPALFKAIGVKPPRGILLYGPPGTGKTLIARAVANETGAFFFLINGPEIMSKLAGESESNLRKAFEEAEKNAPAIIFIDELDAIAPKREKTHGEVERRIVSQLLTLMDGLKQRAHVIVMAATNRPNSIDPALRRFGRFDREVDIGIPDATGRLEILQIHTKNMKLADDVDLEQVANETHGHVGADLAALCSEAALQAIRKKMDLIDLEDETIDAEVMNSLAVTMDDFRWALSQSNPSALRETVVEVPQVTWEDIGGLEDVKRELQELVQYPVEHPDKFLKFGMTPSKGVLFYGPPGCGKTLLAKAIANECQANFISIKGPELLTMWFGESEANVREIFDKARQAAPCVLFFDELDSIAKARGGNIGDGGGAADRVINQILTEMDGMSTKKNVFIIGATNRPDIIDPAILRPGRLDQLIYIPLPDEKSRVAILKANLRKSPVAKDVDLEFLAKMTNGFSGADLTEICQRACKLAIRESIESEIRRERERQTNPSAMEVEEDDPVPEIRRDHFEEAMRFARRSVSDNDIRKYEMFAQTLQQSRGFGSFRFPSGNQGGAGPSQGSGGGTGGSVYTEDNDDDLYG
Assay [11] concerns the target Transitional endoplasmic reticulum ATPase (Homo sapiens, UniProt P55072, C522A). As to the kind of experiment: C522A mutant p97 ATPase inhibitors, dose response, counter-screen for p97 inhibitor project, biochemical, luminescence (AID 1544). On the technique in general: A counterscreen serves to expose hits that act by an unwanted route or on another target.
The test system of a further assay is H9c2. As to the kind of experiment: cells. As to conditions: Rattus norvegicus, H9c2, Myocardium. The assay is classed as functional, cell-based.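 Also: confirmatory concentration-response retest of ultra-high-throughput screening hits for modulation of myocardial damage; cell death induced by hydrogen peroxide oxidative stress; compound pretreatment for 60 min then peroxide exposure for 2 h; potency is for protecting the cells against peroxide damage rather than for killing them.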
For assay [12], the target named is T2, Alkaline phosphatase, tissue-nonspecific isozyme (Homo sapiens, UniProt P05186).
T2 sequence (P05186 whole entry): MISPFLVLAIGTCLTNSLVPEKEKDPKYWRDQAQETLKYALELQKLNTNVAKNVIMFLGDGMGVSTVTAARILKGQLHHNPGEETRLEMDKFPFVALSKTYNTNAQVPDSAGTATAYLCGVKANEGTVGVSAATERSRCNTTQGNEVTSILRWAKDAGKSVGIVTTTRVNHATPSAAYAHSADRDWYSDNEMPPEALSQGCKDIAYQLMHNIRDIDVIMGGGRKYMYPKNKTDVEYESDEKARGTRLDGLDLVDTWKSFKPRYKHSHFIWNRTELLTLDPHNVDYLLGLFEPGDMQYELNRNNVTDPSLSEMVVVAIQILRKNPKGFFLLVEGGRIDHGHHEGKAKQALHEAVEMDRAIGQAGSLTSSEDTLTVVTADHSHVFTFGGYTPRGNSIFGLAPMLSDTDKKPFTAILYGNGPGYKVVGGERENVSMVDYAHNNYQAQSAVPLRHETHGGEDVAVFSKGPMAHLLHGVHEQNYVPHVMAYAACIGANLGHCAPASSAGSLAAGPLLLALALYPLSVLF

Assay [13] in a line: A Cell Based Secondary Assay To Explore Cytotoxicity of Compounds that Sensitize Mycobacterium Tuberculosis to Beta-Lactam Antibiotics. The assay is classed as functional.
Assay [14] concerns the target T1, Polyadenylate-binding protein 1. As to the kind of experiment: PABP poly(A) RNA binding inhibitors, primary screen, biochemical, fluorescence polarization, uHTS (AID 2014).
Assay [15] deals with Eukaryotic translation initiation factor 4H (Homo sapiens, UniProt Q15056). The assay can be described thus: human eIF4H binding inhibitors, primary screen, translation initiation inhibitor project, biochemical, uHTS, fluorescence polarization (AID 2012).

Calls of active or inactive are those of the source. Bounds are passed on as bounds.

Sequence of Transitional endoplasmic reticulum ATPase (Homo sapiens, UniProt P55072, C522A) (P55072 2-806 C522A limits assumed): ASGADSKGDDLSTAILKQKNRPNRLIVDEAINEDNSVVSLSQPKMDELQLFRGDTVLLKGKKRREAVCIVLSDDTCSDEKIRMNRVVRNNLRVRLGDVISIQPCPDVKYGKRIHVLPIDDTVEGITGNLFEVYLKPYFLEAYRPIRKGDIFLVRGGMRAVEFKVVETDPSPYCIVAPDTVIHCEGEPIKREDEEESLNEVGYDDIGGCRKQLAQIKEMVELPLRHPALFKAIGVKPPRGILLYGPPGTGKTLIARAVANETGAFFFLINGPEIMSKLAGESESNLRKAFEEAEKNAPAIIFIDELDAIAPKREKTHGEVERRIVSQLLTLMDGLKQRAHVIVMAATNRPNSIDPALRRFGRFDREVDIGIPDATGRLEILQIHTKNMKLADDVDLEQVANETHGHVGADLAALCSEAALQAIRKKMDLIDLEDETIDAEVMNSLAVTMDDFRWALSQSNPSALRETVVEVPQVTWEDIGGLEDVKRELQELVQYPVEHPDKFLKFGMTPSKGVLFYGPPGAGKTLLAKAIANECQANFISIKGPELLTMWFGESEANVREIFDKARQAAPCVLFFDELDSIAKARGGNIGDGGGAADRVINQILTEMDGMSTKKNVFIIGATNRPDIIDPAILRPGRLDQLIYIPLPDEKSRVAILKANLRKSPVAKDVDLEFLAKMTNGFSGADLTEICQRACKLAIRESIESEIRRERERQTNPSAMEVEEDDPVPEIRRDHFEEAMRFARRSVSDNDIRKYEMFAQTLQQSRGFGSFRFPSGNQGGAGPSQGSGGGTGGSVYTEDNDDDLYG
Sequence of Serine/threonine-protein phosphatase PP1-alpha catalytic subunit (P62136 whole entry): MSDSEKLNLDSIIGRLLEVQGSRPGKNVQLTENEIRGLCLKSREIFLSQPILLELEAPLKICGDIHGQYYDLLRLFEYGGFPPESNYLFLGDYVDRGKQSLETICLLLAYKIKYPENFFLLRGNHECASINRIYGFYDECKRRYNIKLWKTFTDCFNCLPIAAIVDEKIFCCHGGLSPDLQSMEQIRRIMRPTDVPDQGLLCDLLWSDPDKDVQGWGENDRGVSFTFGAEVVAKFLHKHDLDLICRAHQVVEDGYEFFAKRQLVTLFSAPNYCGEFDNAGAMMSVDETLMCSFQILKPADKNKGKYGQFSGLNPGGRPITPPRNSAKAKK

As for `CN1CCN(C(c2ccccn2)c2cc(Cl)c3cccnc3c2O)CC1` (centres undefined), the values for the EC50 in assay [1] and in assay [2] were 24.9 µM (active) and 1.42 µM (active), respectively. The IC50 in assay [3] is > 66 µM (inactive); at Genome polyprotein, > 100 µM (active); in assay [4], > 73.5 µM (inactive); in assay [5], > 66 µM (inactive); in assay [7], 4.17 µM (active); in assay [8] it was 47.6 µM (not active). In assay [6], the AC50 (commonly the midpoint of the concentration-response curve, whichever way the signal moves) is 6.54 µM (active). The CC50 (as a rule, the concentration that lowers cell viability or growth by half) in the assay with Vero was 37.2 µM (active).
Regarding `Cc1nn(-c2cc(N3CCNCC3)ccc2[N+](=O)[O-])c(=O)c2ccccc12`, in assay [9], the half-maximal effective concentration (EC50) (commonly the concentration giving half of the maximal effect) is > 50 µM (active).
On to `O=C(NCC(c1cccnc1)N1CCN(c2ccccc2F)CC1)c1cccc(Cl)c1` (centres undefined), for which, in the assay on Staphylococcus aureus, the IC50 was 597 nM (active).
In the case of `Fc1ccccc1-c1nc(NCc2ccccc2)c2ccccc2n1`, the IC50 in assay [10] and in assay [11] was > 50 µM (not active) in each case.
For the compound `Cc1ccc(C)c(NC(=O)C(Sc2nc3ccccc3c(=O)n2CC(C)C)c2ccccc2)c1` (centres undefined), the IC50 with H9c2 was 36.3 µM (inactive). In [12], the half-maximal effective concentration (EC50) is > 100 µM (not active). For the same compound, the CC50 in assay [13] is 21.3 µM (active).
For `C[N+]1(C)[C@@H]2CC[C@H]1CC(OC(=O)C(c1ccccc1)c1ccccc1)C2` (some centres undefined), the IC50 in assay [14] is 6.66 µM (active); in [15], > 100 µM (inactive).

Values taken from ChEMBL document CHEMBL1201862, “PubChem BioAssay data set” (2004).
